In one data set the test system is G93A-SOD1 expression. Description: SOD1 protein expression in cultured fibroblasts from G93A-SOD1 mice (ELISA). The format is cell-based, mouse. The note with it: for Effect on SOD1 expression (in words) / IC50 / Shape of dose-response curve for SOD1 expression: G93A-SOD1 mouse fibroblasts; for IC50 / activity at 10 µM: Fibroblast; for activity at 10 µM: Mus musculus, 48 h, 10 μM compound. (In general: In an ELISA, binding on a coated surface is turned into a signal by an enzyme label.)

The test system of another data set is CDK5, CDK2, CDK1, CDK4. The note with it: cited from earlier work.
Data set [1] is described as follows: Distribution in tissues of nontransgenic mice after injection. Type of data set: in vivo, mouse. The note with it: cyclodextrin carrier; for concentration at 2 h / concentration at 4 h / concentration at 24 h: mouse, other: injection, 10 mg/kg injection. Here is the method:
The blood brain barrier permeability of GSK3B-II was determined in nontransgenic mice. […] The peak and sustained concentrations found in the spinal cord and brain indicate that the 20 mg/kg dose puts the drug into the inhibitory range found in the cellular assays.
(§1) We also tested compound NUCC-434 for distribution in non-transgenic mice. […] While there are a multitude of methods for improving aqueous solubility of drugs (32) we chose a relatively simple route using a cyclodextrin based carrier (Sulfo-butylether beta-cyclodextrin, Captisol) to solubilize the drug in aqueous solution. Using the cyclodextrin carrier, we were able to solubilize NUCC-434 to 2 mg/mL in water and deliver 10 mg/kg to nontransgenic mice for pharmacokinetics. […] However, the distribution dynamics are different in the presence of the cyclodextrin which appears to slow uptake into the CNS as the peak drug concentration was delayed (Table 4). Such changes in distribution dynamics using cyclodextrins have not been studied in detail.

Data set [2] in a line: Solubility in dosing vehicle. Type of data set: physicochemical. Here is the method:
as §1

For another data set, the system named is cell toxicity. The note with it: cited from earlier work.
The mark [3] stands for this setting: Table 2, relative to control, read-out: Relative SOD1 expression 10 μM compound.
Setting [4] is: Table 5, read-out: Relative SOD1 Expression in Presence of Compound (10 μM).
The mark [5] stands for this setting: spinal cord, read-out: Spinal Cord.

The values that follow come from patent US9669014B2, “Small molecule inhibitors of superoxide dismutase expression” (Northwestern University, priority 2014, dated 2017).

Values after ≈ are worked out from the molar mass of the structure shown. Read-outs that look alike come from different tables or passages of the source.

Protocol for G93A-SOD1 expression: Fibroblasts were treated with the title compounds at the indicated concentration for 48 hr. Cells were washed, lysed, and SOD1 levels measured by ELISA. SOD1 levels are normalized to the total protein in the lysate.
Thus, we used cultured fibroblasts from the G93A-SOD1 transgenic mouse to screen GSK3β protein kinase inhibitors (FIG. 1) for their effects on SOD1 expression. The transgene construct contains the human SOD1 promoter so that cellular signaling processes that affect transcription of the gene will be fully functional. We chose a structurally diverse group of compounds including some natural products.

As to `CCCCc1c(-c2ccc(O)cc2)[nH]c2nccnc12` [Aloisine, Aloisine A, reference compound], the “Effect on SOD1 expression (in words)” value is “increased SOD1 expression” in the data set with G93A-SOD1 expression and “Increases SOD1” with G93A-SOD1 expression (48 hr treatment). Further, the “Comments: other kinases inhibited” value in the data set on CDK5, CDK2, CDK1, CDK4 is “Also inhibits CDK5,”.
For `O=C1Nc2cc(Br)ccc2/C1=C1/Nc2ccccc2/C1=N\O` [GSK3B-IX, reference compound], the “Effect on SOD1 expression (in words)” value in the data set with G93A-SOD1 expression is on record as “increased SOD1 expression”.
By IC50 is commonly meant the point on the concentration scale where inhibition reaches its midpoint. A lower IC50 goes with higher potency. For the compound `O=C1Cc2c([nH]c3ccc(Br)cc23)-c2ccccc2N1` [Kenpaullone, reference compound], half-maximal inhibition with G93A-SOD1 expression (48 hr treatment) (IC50) required 10 µM. Further, the “Effect on SOD1 expression (in words)” value in the data set with G93A-SOD1 expression is on record as “only weakly decreased SOD1 expression”. In addition, the “Comments: other kinases inhibited” value in the data set on CDK5, CDK2, CDK1, CDK4 is on record as “Also inhibits CDK5,”.
Regarding `Brc1cccc(CSc2nnc(-c3ccncc3)o2)c1` [NUCC-318], the results for the activity at 10 µM in the data set with G93A-SOD1 expression (setting [3]) and in the data set on G93A-SOD1 expression (setting [4]) were 91% and 90.3%, respectively.
`Fc1cccc(CSc2nnc(-c3ccncc3)o2)c1` [NUCC-319]: the “Effect on SOD1 expression (in words)” value with G93A-SOD1 expression is listed as “significant increase in SOD1 expression”. For the same compound, the activity at 10 µM stood at 143% in the data set on G93A-SOD1 expression (setting [3]) and 144% in the data set with G93A-SOD1 expression (setting [4]).
Consider `Brc1ccc(CSc2nnc(-c3ccncc3)o2)cc1` [NUCC-320], for which the “Effect on SOD1 expression (in words)” value in the data set on G93A-SOD1 expression is “no effect on SOD1 expression”. Also, the activity at 10 µM in the data set on G93A-SOD1 expression (setting [3]) and with G93A-SOD1 expression (setting [4]) was 103% in each case.
Consider `Ic1ccc(CSc2nnc(-c3ccncc3)o2)cc1` [NUCC-321], for which the values for the activity at 10 µM in the data set on G93A-SOD1 expression (setting [3]) and in the data set on G93A-SOD1 expression (setting [4]) were 69% and 70.2%, respectively.
For the compound `Brc1ccc(CSc2nnc(-c3cccnc3)o2)cc1` [NUCC-322], in the data set with G93A-SOD1 expression (10 μM), the “SOD1 expression, % of control” value is given as 68.6 % of control. Moreover, the activity at 10 µM in the data set on G93A-SOD1 expression (setting [4]) came to 68.6%.
Turning to `Cn1c(SCc2ccc(Br)cc2)nnc1-c1ccncc1` [NUCC-0000323], the activity at 10 µM in the data set with G93A-SOD1 expression (setting [4]) came to 103%.
For the compound `Fc1ccc(CSc2nnc(-c3ccncc3)o2)cc1` [NUCC-324], the figures for the activity at 10 µM in the data set on G93A-SOD1 expression (setting [3]) and in the data set on G93A-SOD1 expression (setting [4]) were 86% and 86.3%, respectively.
As for `CSc1nnc(-c2ccncc2-c2ccc(F)cc2)o1` [NUCC-0000404], the activity at 10 µM with G93A-SOD1 expression (setting [4]) turned out to be 94.9%.
Regarding `Cc1cc(-c2nnc(SCc3ccc(F)cc3)o2)ccn1` [NUCC-0000405], the activity at 10 µM in the data set with G93A-SOD1 expression (setting [4]) stood at 95%.
For `O=c1c(C2=NC3C=CC=CC3N2)coc2ccc(Cl)cc12` (centres unmarked) [NUCC-0000406], the activity at 10 µM in the data set on G93A-SOD1 expression (setting [4]) was found to be 89.9%.
As for `N#Cc1ccc(-c2ccc(CSc3nnc(-c4ccc5c(c4)OCO5)o3)cc2)cc1` [NUCC-0000418], the activity at 10 µM in the data set on G93A-SOD1 expression (setting [4]) came to 114%.
For `O=[N+]([O-])c1ccccc1CSc1nnc(-c2ccncc2)o1` [NUCC-0000430], in the data set with G93A-SOD1 expression (setting [4]), the activity at 10 µM was found to be 101%.
For the compound `O=[N+]([O-])c1ccc(CSc2nnc(-c3ccncc3)o2)cc1` [NUCC-431], the activity at 10 µM in the data set on G93A-SOD1 expression (setting [3]) and with G93A-SOD1 expression (setting [4]) was 102% in each case.
On to `O=[N+]([O-])c1cccc(CSc2nnc(-c3ccncc3)o2)c1` [NUCC-432], for which, in the data set with G93A-SOD1 expression, the “Effect on SOD1 expression (in words)” value is reported as “tended to cause an increase in SOD1 expression”. For the same compound, the activity at 10 µM with G93A-SOD1 expression (setting [3]) and with G93A-SOD1 expression (setting [4]) was 117% each time.
`COc1cccc(CSc2nnc(-c3ccncc3)o2)c1` [NUCC-433]: in the data set with G93A-SOD1 expression, the “Effect on SOD1 expression (in words)” value is listed as “dose dependent reduction of SOD1 expression in vitro” and the “Shape of dose-response curve for SOD1 expression” value was “flattened rather than upward curvature at higher concentration”. Besides, the activity at 10 µM with G93A-SOD1 expression (setting [3]) is 50%. Besides, the activity at 10 µM in the data set with G93A-SOD1 expression (setting [4]) is 49.9%.
In general, solubility refers to the dissolved amount per volume that the medium holds. Take `COc1ccc(CSc2nnc(-c3ccncc3)o2)cc1` [NUCC-434]: the “Effect on SOD1 expression (in words)” value in the data set on G93A-SOD1 expression is reported as “dose dependent reduction of SOD1 expression in vitro”. In the data set on G93A-SOD1 expression, the “Shape of dose-response curve for SOD1 expression” value is listed as “flattened rather than upward curvature at higher concentration”. Also, the activity at 10 µM with G93A-SOD1 expression (setting [3]) came out at 47%; with G93A-SOD1 expression (setting [4]) it was 47.4%. Also, the “CNS distribution and persistence (in words)” value in data set [1] (10 mg/kg, nontransgenic mice) is “entered the CNS and persisted for 24 hr in the spinal cord”. The concentration at 2 h in data set [1] (brain, read-out: Brain) is 29 nM; in data set [1] (serum, read-out: Serum) it was 153 nM; in data set [1] (setting [5]), 57 nM. Also, the concentration at 4 h in data set [1] (brain, read-out: Brain) is 47 nM; in data set [1] (serum, read-out: Serum), 334 nM; in data set [1] (setting [5]) it was 162 nM. Besides, the concentration at 24 h in data set [1] (serum, read-out: Serum) amounted to 123 nM; in data set [1] (setting [5]) it was 113 nM. Besides, in data set [2] (1-2% DMSO vehicle), the “Solubility in standard 1-2% DMSO vehicle” value is reported as “poor”. In data set [2] (aqueous with cosolvent or surfactant or cyclodextrin, Sulfo-butylether beta-cyclodextrin (Captisol) in water, read-out: Solubility in water with cyclodextrin carrier), the solubility came to 2000 µg/mL (≈ 6.68 mM).
On to `FC(F)(F)c1ccc(CSc2nnc(-c3ccncc3)o2)cc1` [NUCC-435], for which the “Effect on SOD1 expression (in words)” value in the data set on G93A-SOD1 expression was “significant increase in SOD1 expression”. The activity at 10 µM in the data set with G93A-SOD1 expression (setting [3]) amounted to 157%; in the data set with G93A-SOD1 expression (setting [4]), 158%.
`Cc1ccc(CSc2nnc(-c3ccncc3)o2)cc1` [NUCC-436]: the activity at 10 µM in the data set on G93A-SOD1 expression (setting [3]) and in the data set with G93A-SOD1 expression (setting [4]) was 126% in each case.
With `c1cc(CSc2nnc(-c3ccncc3)o2)ccn1` [NUCC-437], the “Effect on SOD1 expression (in words)” value in the data set on G93A-SOD1 expression is “not significantly different from control”. In addition, in the data set with G93A-SOD1 expression (setting [4]), the activity at 10 µM turned out to be 90.3%.
Consider `c1cncc(CSc2nnc(-c3ccncc3)o2)c1` [NUCC-438], for which the “Effect on SOD1 expression (in words)” value in the data set on G93A-SOD1 expression was “not significantly different from control”. Also, the activity at 10 µM in the data set with G93A-SOD1 expression (setting [4]) is 112%.
For `Clc1cccc(CSc2nnc(-c3ccncc3)o2)c1` [NUCC-439], the activity at 10 µM in the data set on G93A-SOD1 expression (setting [3]) was found to be 96%; with G93A-SOD1 expression (setting [4]), 95.9%.
In the case of `Clc1ccc(CSc2nnc(-c3ccncc3)o2)cc1` [NUCC-440], in the data set on G93A-SOD1 expression, the “Effect on SOD1 expression (in words)” value was “tended to cause an increase in SOD1 expression”. Besides, the activity at 10 µM in the data set with G93A-SOD1 expression (setting [3]) and with G93A-SOD1 expression (setting [4]) was 123% throughout.
For `c1ccc(CSc2nnc(-c3ccncc3)o2)cc1` [NUCC-441], the “Effect on SOD1 expression (in words)” value in the data set on G93A-SOD1 expression is on record as “activates expression of SOD1”. For the same compound, the activity at 10 µM in the data set with G93A-SOD1 expression (setting [3]) and with G93A-SOD1 expression (setting [4]) was 133% each time.
Turning to `CSc1nnc(-c2ccnc(Nc3ccccc3)c2)o1` [NUCC-0000471], in the data set on G93A-SOD1 expression (setting [4]), the activity at 10 µM worked out at 106%.
Same read-out and setting: the result for `CSc1nnc(-c2ccnc(NCc3ccccc3)c2)o1` [NUCC-0000472] reads 146%.
On the same count and under the same terms, the result for `CSc1nnc(-c2ccnc(NC3CCOCC3)c2)o1` [NUCC-0000473] reads 127%.
Regarding `Cn1cc(C2=C(c3ccc(Cl)cc3Cl)C(=O)NC2=O)c2ccccc21` [SB216763, reference compound], the IC50 in the data set on G93A-SOD1 expression (48 hr treatment) amounted to 3 µM. Besides, the “Effect on SOD1 expression (in words)” value with G93A-SOD1 expression is “not more effective at decreasing SOD1 expression in vitro”.
With `CCc1nc(N)nc(N)c1-c1ccc(Cl)cc1` [pyrimethamine], the “Cell toxicity in vitro” value in the data set with cell toxicity was “cell toxicity in the effective dose range”.
